# Reference: PubChem BioAssay (NCI)
#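 Tested at 5 concentrations; 48 h exposure; 96-well plates; endpoints linearly interpolated, else capped at highest concentration. GI50 marks 50% less growth. TGI: total growth inhibition.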
# What was measured:
# Assay in all cases: inhibition of tumour cell growth, NCI panel, 48 h
# 786-0 renal = test system: 786-0 renal
# A498 renal = test system: A498 renal
# A549 NSCLC = test system: A549 NSCLC
# ACHN renal = test system: ACHN renal
# BT-549 breast = test system: BT-549 breast
# CAKI-1 renal = test system: CAKI-1 renal
# CCRF-CEM leukemia = test system: CCRF-CEM leukemia
# COLO 205 colon = test system: COLO 205 colon
# DU-145 prostate = test system: DU-145 prostate
# EKVX NSCLC = test system: EKVX NSCLC
# HCC-2998 colon = test system: HCC-2998 colon
# HCT-116 colon = test system: HCT-116 colon
# HCT-15 colon = test system: HCT-15 colon
# HL-60(TB) leukemia = test system: HL-60(TB) leukemia
# HOP-62 NSCLC = test system: HOP-62 NSCLC
# HOP-92 NSCLC = test system: HOP-92 NSCLC
# HS 578T breast = test system: HS 578T breast
# HT29 colon = test system: HT29 colon
# IGROV1 ovarian = test system: IGROV1 ovarian
# K-562 leukemia = test system: K-562 leukemia
# KM12 colon = test system: KM12 colon
# LOX IMVI melanoma = test system: LOX IMVI melanoma
# M14 melanoma = test system: M14 melanoma
# MALME-3M melanoma = test system: MALME-3M melanoma
# MCF7 breast = test system: MCF7 breast
# MDA-MB-231 breast = test system: MDA-MB-231 breast
# MDA-MB-435 = test system: MDA-MB-435
# MDA-MB-468 breast = test system: MDA-MB-468 breast
# MOLT-4 leukemia = test system: MOLT-4 leukemia
# NCI-H226 lung = test system: NCI-H226 lung
# NCI-H23 lung = test system: NCI-H23 lung
# NCI-H460 lung = test system: NCI-H460 lung
# NCI-H522 lung = test system: NCI-H522 lung
# NCI/ADR-RES ovarian = test system: NCI/ADR-RES ovarian
# OVCAR-3 ovarian = test system: OVCAR-3 ovarian
# OVCAR-4 ovarian = test system: OVCAR-4 ovarian
# OVCAR-5 ovarian = test system: OVCAR-5 ovarian
# OVCAR-8 ovarian = test system: OVCAR-8 ovarian
# PC-3 prostate = test system: PC-3 prostate
# RPMI-8226 leukemia = test system: RPMI-8226 leukemia
# RXF 393 renal = test system: RXF 393 renal
# SF-268 CNS = test system: SF-268 CNS
# SF-295 CNS = test system: SF-295 CNS
# SF-539 CNS = test system: SF-539 CNS
# SK-MEL-2 melanoma = test system: SK-MEL-2 melanoma
# SK-MEL-28 melanoma = test system: SK-MEL-28 melanoma
# SK-MEL-5 melanoma = test system: SK-MEL-5 melanoma
# SK-OV-3 ovarian = test system: SK-OV-3 ovarian
# SN12C renal = test system: SN12C renal
# SNB-19 CNS = test system: SNB-19 CNS
# SNB-75 CNS = test system: SNB-75 CNS
# SR leukemia = test system: SR leukemia
# SW-620 colon = test system: SW-620 colon
# T-47D breast = test system: T-47D breast
# TK-10 renal = test system: TK-10 renal
# U251 CNS = test system: U251 CNS
# UACC-257 melanoma = test system: UACC-257 melanoma
# UACC-62 melanoma = test system: UACC-62 melanoma
# UO-31 renal = test system: UO-31 renal
smiles,measurement,setting,value
O=C(c1ccc(O)cc1)C1[C@H](c2ccc(Cl)cc2)[C@@H](c2ccccc2)NC12C(=O)Nc1ccccc12 (stereo partly drawn),GI50,786-0 renal,6.25 µM
same,TGI,786-0 renal,12.2 µM
same,GI50,A498 renal,5.89 µM
same,TGI,A498 renal,11.8 µM
same,GI50,A549 NSCLC,5.8 µM
same,TGI,A549 NSCLC,12.2 µM
same,GI50,ACHN renal,6.08 µM
same,TGI,ACHN renal,11.6 µM
same,GI50,BT-549 breast,8.32 µM
same,TGI,BT-549 breast,14.6 µM
same,GI50,CAKI-1 renal,5.19 µM
same,TGI,CAKI-1 renal,10.8 µM
same,GI50,CCRF-CEM leukemia,5.9 µM
same,TGI,CCRF-CEM leukemia,19.8 µM
same,GI50,COLO 205 colon,7.17 µM
same,TGI,COLO 205 colon,15.3 µM
same,GI50,DU-145 prostate,7.77 µM
same,TGI,DU-145 prostate,15.4 µM
same,GI50,EKVX NSCLC,5.3 µM
same,TGI,EKVX NSCLC,10.9 µM
same,GI50,HCC-2998 colon,6.27 µM
same,TGI,HCC-2998 colon,12 µM
same,GI50,HCT-116 colon,6.22 µM
same,TGI,HCT-116 colon,12.8 µM
same,GI50,HCT-15 colon,5.6 µM
same,TGI,HCT-15 colon,12.4 µM
same,GI50,HL-60(TB) leukemia,7.96 µM
same,TGI,HL-60(TB) leukemia,25.6 µM
same,GI50,HOP-62 NSCLC,6.99 µM
same,TGI,HOP-62 NSCLC,14.7 µM
same,GI50,HOP-92 NSCLC,6.03 µM
same,TGI,HOP-92 NSCLC,12.4 µM
same,GI50,HS 578T breast,6.96 µM
same,TGI,HS 578T breast,18.8 µM
same,GI50,HT29 colon,6.11 µM
same,TGI,HT29 colon,13.3 µM
same,GI50,IGROV1 ovarian,5.18 µM
same,TGI,IGROV1 ovarian,10.6 µM
same,GI50,K-562 leukemia,8.89 µM
same,TGI,K-562 leukemia,42 µM
same,GI50,KM12 colon,7.65 µM
same,TGI,KM12 colon,16.1 µM
same,GI50,LOX IMVI melanoma,4.97 µM
same,TGI,LOX IMVI melanoma,10.1 µM
same,GI50,M14 melanoma,6.19 µM
same,TGI,M14 melanoma,13.6 µM
same,GI50,MALME-3M melanoma,6.68 µM
same,TGI,MALME-3M melanoma,12.4 µM
same,GI50,MCF7 breast,7.26 µM
same,TGI,MCF7 breast,17.2 µM
same,GI50,MDA-MB-231 breast,5.38 µM
same,TGI,MDA-MB-231 breast,10.8 µM
same,GI50,MDA-MB-435,7.01 µM
same,TGI,MDA-MB-435,13.6 µM
same,GI50,MDA-MB-468 breast,4.86 µM
same,TGI,MDA-MB-468 breast,10.3 µM
same,GI50,MOLT-4 leukemia,4.84 µM
same,TGI,MOLT-4 leukemia,18.7 µM
same,GI50,NCI-H226 lung,5.37 µM
same,TGI,NCI-H226 lung,11.8 µM
same,GI50,NCI-H23 lung,6.29 µM
same,TGI,NCI-H23 lung,12.3 µM
same,GI50,NCI-H460 lung,7.63 µM
same,TGI,NCI-H460 lung,15.3 µM
same,GI50,NCI-H522 lung,6.05 µM
same,TGI,NCI-H522 lung,12.5 µM
same,GI50,NCI/ADR-RES ovarian,5.72 µM
same,TGI,NCI/ADR-RES ovarian,11.8 µM
same,GI50,OVCAR-3 ovarian,6.95 µM
same,TGI,OVCAR-3 ovarian,13.9 µM
same,GI50,OVCAR-4 ovarian,7.17 µM
same,TGI,OVCAR-4 ovarian,16.3 µM
same,GI50,OVCAR-5 ovarian,6.42 µM
same,TGI,OVCAR-5 ovarian,12.1 µM
same,GI50,OVCAR-8 ovarian,7.2 µM
same,TGI,OVCAR-8 ovarian,14.1 µM
same,GI50,PC-3 prostate,4.32 µM
same,TGI,PC-3 prostate,11.7 µM
same,GI50,RPMI-8226 leukemia,8.61 µM
same,TGI,RPMI-8226 leukemia,29.9 µM
same,GI50,RXF 393 renal,5.77 µM
same,TGI,RXF 393 renal,11.5 µM
same,GI50,SF-268 CNS,7 µM
same,TGI,SF-268 CNS,15.8 µM
same,GI50,SF-295 CNS,5.63 µM
same,TGI,SF-295 CNS,11 µM
same,GI50,SF-539 CNS,7.02 µM
same,TGI,SF-539 CNS,12.8 µM
same,GI50,SK-MEL-2 melanoma,6.03 µM
same,TGI,SK-MEL-2 melanoma,12.1 µM
same,GI50,SK-MEL-28 melanoma,7.02 µM
same,TGI,SK-MEL-28 melanoma,12.9 µM
same,GI50,SK-MEL-5 melanoma,6.91 µM
same,TGI,SK-MEL-5 melanoma,12.7 µM
same,GI50,SK-OV-3 ovarian,7.32 µM
same,TGI,SK-OV-3 ovarian,14 µM
same,GI50,SN12C renal,6.26 µM
same,TGI,SN12C renal,12 µM
same,GI50,SNB-19 CNS,6.71 µM
same,TGI,SNB-19 CNS,12.4 µM
same,GI50,SNB-75 CNS,5.25 µM
same,TGI,SNB-75 CNS,11 µM
same,GI50,SR leukemia,5.14 µM
same,TGI,SR leukemia,42 µM
same,GI50,SW-620 colon,8.11 µM
same,TGI,SW-620 colon,16 µM
same,GI50,T-47D breast,5.14 µM
same,TGI,T-47D breast,12.9 µM
same,GI50,TK-10 renal,6.8 µM
same,TGI,TK-10 renal,13.2 µM
same,GI50,U251 CNS,6.57 µM
same,TGI,U251 CNS,12.7 µM
same,GI50,UACC-257 melanoma,6.79 µM
same,TGI,UACC-257 melanoma,12.9 µM
same,GI50,UACC-62 melanoma,5 µM
same,TGI,UACC-62 melanoma,10.2 µM
same,GI50,UO-31 renal,4.73 µM
same,TGI,UO-31 renal,9.79 µM
